For series [1], the system named is Acinetobacter baumannii. Put plainly: Potentiation of colistin-induced antimicrobial activity against Acinetobacter baumannii ATCC 17978 expressing mcr1 gene assessed as colistin MIC at 60 uM incubated for overnight duration by CLSI based method (reference value: 16 ug/ml). The series is classed as functional.
Series [2] concerns Acinetobacter baumannii. Put plainly: Potentiation of colistin-induced antimicrobial activity against Acinetobacter baumannii SM1536 expressing mcr1 gene assessed as colistin MIC at 60 uM incubated for overnight duration by CLSI based method (reference value: 64 ug/ml). The series is classed as functional.
For series [3], the system named is Escherichia coli. Put plainly: Potentiation of colistin-induced antimicrobial activity against Escherichia coli ATCC 25922 expressing mcr1 gene assessed as colistin MIC at 60 uM incubated for overnight duration by CLSI based method (reference value: 8 ug/ml). The series is classed as functional.
Series [4] deals with Escherichia coli. In words: Potentiation of colistin-induced antimicrobial activity against Escherichia coli YD626 expressing mcr1 gene assessed as colistin MIC at 60 uM incubated for overnight duration by CLSI based method (reference value: 4 ug/ml). The series is classed as functional.
Series [5] concerns Klebsiella pneumoniae. Put plainly: Potentiation of colistin-induced antimicrobial activity against Klebsiella pneumoniae 2210291 expressing mcr1 gene assessed as colistin MIC at 60 uM incubated for overnight duration by CLSI based method (reference value: 16 ug/ml). The series is classed as functional.
Series [6] relates to Acinetobacter baumannii. Put plainly: Potentiation of colistin-induced antimicrobial activity against colistin-resistant Acinetobacter baumannii PM3941 assessed as colistin MIC at 60 uM incubated for overnight duration by CLSI based method (reference value: 512 ug/ml). The series is classed as functional.
Series [7] relates to Acinetobacter baumannii. In words: Potentiation of colistin-induced antimicrobial activity against colistin-resistant Acinetobacter baumannii PM3942 assessed as colistin MIC at 60 uM incubated for overnight duration by CLSI based method (reference value: 512 ug/ml). Format: functional.
In series [8] the test system is Klebsiella pneumoniae. Put plainly: Potentiation of colistin-induced antimicrobial activity against colistin-resistant Klebsiella pneumoniae B9 assessed as colistin MIC at 60 uM incubated for overnight duration by CLSI based method (reference value: 512 ug/ml). The series is classed as functional.
Series [9] concerns Klebsiella pneumoniae. Put plainly: Potentiation of colistin-induced antimicrobial activity against colistin-resistant Klebsiella pneumoniae C5 assessed as colistin MIC at 60 uM incubated for overnight duration by CLSI based method (reference value: 128 ug/ml). Format: functional.
The test system of series [10] is Acinetobacter baumannii. In words: Potentiation of colistin-induced antimicrobial activity against colistin-resistant Acinetobacter baumannii PM3941 assessed as colistin MIC at 30 uM incubated for overnight duration by CLSI based method (reference value: 512 ug/ml). Format: functional.
In series [11] the test system is Acinetobacter baumannii. Put plainly: Potentiation of colistin-induced antimicrobial activity against colistin-resistant Acinetobacter baumannii PM3942 assessed as colistin MIC at 30 uM incubated for overnight duration by CLSI based method (reference value: 512 ug/ml). Format: functional.
Series [12] deals with Acinetobacter baumannii. In words: Potentiation of colistin-induced antimicrobial activity against colistin-resistant Acinetobacter baumannii PM4119 assessed as colistin MIC at 30 uM incubated for overnight duration by CLSI based method (reference value: 1024 ug/ml). The series is classed as functional.
The subject of series [13] is Klebsiella pneumoniae. Put plainly: Potentiation of colistin-induced antimicrobial activity against colistin-resistant Klebsiella pneumoniae B9 assessed as colistin MIC at 30 uM incubated for overnight duration by CLSI based method (reference value: 512 ug/ml). Format: functional.
The test system of series [14] is Klebsiella pneumoniae. In words: Potentiation of colistin-induced antimicrobial activity against colistin-resistant Klebsiella pneumoniae C3 assessed as colistin MIC at 30 uM incubated for overnight duration by CLSI based method (reference value: 512 ug/ml). Format: functional.
Series [15] relates to Klebsiella pneumoniae. Put plainly: Potentiation of colistin-induced antimicrobial activity against colistin-resistant Klebsiella pneumoniae C5 assessed as colistin MIC at 30 uM incubated for overnight duration by CLSI based method (reference value: 128 ug/ml). Format: functional.
Series [16] concerns Klebsiella pneumoniae. Put plainly: Potentiation of colistin-induced antimicrobial activity against colistin-resistant Klebsiella pneumoniae B9 assessed as colistin MIC at 15 uM incubated for overnight duration by CLSI based method (reference value: 512 ug/ml). The series is classed as functional.
In series [17] the test system is Acinetobacter baumannii. Put plainly: Potentiation of colistin-induced antimicrobial activity against colistin-resistant Acinetobacter baumannii PM4119 assessed as reduction in colistin MIC at 60 uM incubated for overnight duration by CLSI based method relative to colistin alone control. The series is classed as functional.
The subject of series [18] is Acinetobacter baumannii. Put plainly: Potentiation of colistin-induced antimicrobial activity against colistin-resistant Acinetobacter baumannii PM3941 assessed as reduction in colistin MIC at 15 uM incubated for overnight duration by CLSI based method relative to colistin alone control. The series is classed as functional.
In series [19] the test system is Acinetobacter baumannii. In words: Toxicity against multidrug resistant Acinetobacter baumannii BAA1605 incubated for overnight duration by CLSI based method. The series is classed as organism-based. As to conditions: in vivo.

Values after ≈ are worked out from the molar mass of the structure shown.

As for `CCCCCc1ccc(C(=O)NCCn2cc(CCCCCc3cnc(N)n3Cc3ccc(CCCC)cc3)nn2)cc1`, the MIC with Acinetobacter baumannii [1] is 0.25 µg/mL; with Acinetobacter baumannii [2], 1 µg/mL; in the series on Escherichia coli [3], 0.031 µg/mL; in the series on Escherichia coli [4], < 0.002 µg/mL; with Klebsiella pneumoniae [5] it was 0.125 µg/mL; with Acinetobacter baumannii [6] it was 8 µg/mL. Besides, the MIC is 4 µg/mL with Acinetobacter baumannii [7]; 4 µg/mL in the series with Klebsiella pneumoniae [8]; 2 µg/mL with Klebsiella pneumoniae [9]; 16 µg/mL in the series on Acinetobacter baumannii [10]; 16 µg/mL in the series on Acinetobacter baumannii [11]; 4 µg/mL with Acinetobacter baumannii [12]. The MIC was determined as 8 µg/mL with Klebsiella pneumoniae [13], 16 µg/mL in the series on Klebsiella pneumoniae [14], 4 µg/mL with Klebsiella pneumoniae [15] and 32 µg/mL in the series on Klebsiella pneumoniae [16]. In addition, the “fold change (FC)” value in the series with Acinetobacter baumannii [17] came to 512; with Acinetobacter baumannii [18] it was 16.

The compound `CCCCCCc1ccc(-c2cn(CC)c(N)n2)cc1` came in with an MIC with Acinetobacter baumannii [19] of 200 µM (≈ 54.3 µg/mL).

(Values after ChEMBL document CHEMBL4177586, “Small molecule adjuvants that suppress both chromosomal and mcr-1 encoded colistin-resistance and amplify colistin efficacy in polymyxin-susceptible bacteria” (Bioorg Med Chem, 2017).)
